89 compounds from a melting point compilation (Tetko et al.; mined from patent text by program, amines drawn as free bases though some values may be those of a salt) can be followed below.

Structures are written as SMILES.

`COc1ccccc1C1CC(=O)c2c(C)coc2C1` (centres undefined) registered a melting point of 79 to 80 °C.

Compound `CC(OCCCNC(=O)c1coc(-c2ccc(/C(=C\CCCCC(=O)O)c3cccnc3)cc2)n1)C1CCCCC1` (centres undefined) displayed a melting point of 80 to 85 °C.

Regarding `COc1cc2ccnc(N3CCN(c4ccc5c(c4)CCC(=O)N5)CC3)c2cc1OC`, the melting point was in the range of 235 to 240 °C.

In turn, `C#Cc1cc(Nc2ncnc3cnc(NC(=O)CP(=O)(OCC)OCC)cc23)ccc1Cl` showed a melting point of 124 to 127 °C.

Take `O=C(CCc1nnc(Nc2ccccc2Cl)o1)NC1CCN(Cc2ccc(F)c(F)c2)CC1`: the melting point was in the range of 162 to 163 °C.

The compound `COc1ccc(CNc2nnc(Cl)c3cc(Cl)c(Cl)cc23)cc1Cl` gave a melting point of 208 to 209 °C.

With `CCNc1nc(N2CCN(Cc3ccccc3)CC2)ncc1C(=O)O`, the melting point lay in the range of 158 to 160 °C.

On to `CCC1(CC)CC(c2ccc(OC)c(OC)c2)=NN(C2CCN(C(=O)c3ccccc3OC)CC2)C1=O`, for which the melting point fell in the range of 160 to 162 °C.

On to `N#CCCN(N)c1nc2ccccc2o1`, for which the melting point was in the range of 169 to 170 °C.

Turning to `COC(=O)c1scc(-c2ccccc2)c1S(N)(=O)=O`, the melting point fell in the range of 172 to 175 °C.

`Cc1cc(Nc2ccnc(Nc3ccc(S(=O)(=O)N(C)C4CCN(Cc5cccn5C)CC4)cc3)n2)ccc1F`: the melting point was in the range of 159 to 160 °C.

Compound `COc1ccc(S(=O)(=O)Nc2ccccc2Nc2ccncc2)cc1` displayed a melting point of 185 to 187 °C.

Regarding `Cc1nc(N)nc(N)c1C#CC(C)(C)c1ccc(C(F)(F)F)cc1`, the melting point was 153 to 157 °C.

Turning to `COc1ccc2c(c1)C(CCNC(C)=O)CCO2` (centres undefined), the melting point worked out at 138 °C.

As for `CCOC(=O)C1COc2c(C=O)cc(Cl)c(Cl)c2O1` (centres undefined), the melting point is 110 to 113 °C.

The compound `CC(C)(C)[Si](C)(C)Oc1ccc2cc(Br)ccc2c1` came in with a melting point of 62 to 63 °C.

The compound `O=C(O)c1cc(NCCc2ccc([N+](=O)[O-])cc2)ccc1O` came in with a melting point of 234 to 236 °C.

As to `Cc1noc(NS(=O)(=O)c2ccsc2C(=O)Nc2ccc(C(C)(C)C)cc2)c1Br`, the melting point fell in the range of 76 to 86 °C.

The compound `CC(=O)NC(=O)CCCCBr` gave a melting point of 88 to 90 °C.

`CC1Cc2cc3c(cc2C(c2ccc([N+](=O)[O-])cc2)=NN1C(=O)CCl)OCO3` (centres undefined) had a melting point of 158 to 160 °C.

`CC12CCC(=O)C=C1CCC1C2CCC2(C)C(=CCC(=O)O)CCC12` (centres undefined) came in with a melting point of 266 to 270 °C.

Compound `O=c1c2c[nH]c3ccccc3n-2c(=O)n1-c1ccccc1` showed a melting point of 231 to 234 °C.

As to `CCOC(=O)Nc1ccc(OC)c(OC)c1C=O`, the melting point fell in the range of 86 to 88 °C.

Consider `CC(CCC(=O)N(C)C)C1CC=C2C3=C(CCC21C)C1(C)CCC(O)C(C)(C)C1CC3` (centres undefined), for which the melting point was in the range of 192 to 195 °C.

For `CC(Br)C(=O)c1ccc(O)cc1` (centres undefined), the melting point was 95 to 97 °C.

Compound `O=C1NCC(c2cn3c4c(cccc24)CCC3)=C1c1c[nH]c2ccccc12` displayed a melting point of 260 to 262 °C.

For `CCCN(C(N)=S)c1cccc2ccccc12`, the melting point is 170 to 171 °C.

Compound `N[C@@H]1CCN(Cc2ccccc2)C[C@H]1O` (relative stereo) returned a melting point of 74.1 °C.

`CCn1cc(C(=O)O)c(=O)c2cc(F)c(N3CCC(CNC(C)C)C3)nc21` (centres undefined): the melting point fell in the range of 302 to 304 °C.

For `CCCCN1C(=O)C2=C(c3ccc(Cl)cc3)N(CCCC)C(=O)C2=C1c1ccc(Cl)cc1`, the melting point was 176 to 177 °C.

With `Cc1cc(N(C)C)nc2ccc(Br)cc12`, the melting point lay within 81.9 to 84.1 °C.

The compound `CN1C(=O)[C@H](NC(=O)CCCc2cccs2)N=C(c2ccccc2)c2ccccc21` gave a melting point of 170 to 180 °C.

Consider `Cn1cc(C(=O)NCc2ccc(Cl)cc2)c(=O)c2cc(CN3CCOCC3)cc(C#CCn3ccnc3)c21`, for which the melting point lay in the range of 178 to 180 °C.

As for `CC(=O)OC1CCC2(C)C(=CCC3C2CCC2(C)C(C(C)CC(F)(F)CC(C)(C)O)CCC32)C1` (centres undefined), the melting point lay within 168 to 170 °C.

In turn, `COCCN(C1CCS(=O)(=O)C1)S(=O)(=O)c1ccc(Nc2nccc(Nc3ccc(F)cc3)n2)cc1` (centres undefined) yielded a melting point of 150 °C.

`CC(=O)c1ccc2c(c1)C1(c3ccccc3-2)c2cc(C(C)=O)ccc2-c2ccc(C(C)=O)cc21`: the melting point lay within 258 to 260 °C.

Regarding `CC(C(O)C(C)(C)Cc1ccc(OC(F)(F)F)cc1)n1ncnc1S` (centres undefined), the melting point is 125 to 126 °C.

In the case of `Nc1ccc([N+](=O)[O-])cc1-c1cc([N+](=O)[O-])ccc1N`, the melting point lay in the range of 315 to 317 °C.

Consider `CCCCOC(=O)C=Cc1c(-c2ccccc2)nn2ccccc12`, for which the melting point was in the range of 80 to 82 °C.

Compound `CCCCOc1cc2c(cc1C)C(=O)CC2(C)C` gave a melting point of 59 °C.

In turn, `COc1ccc(COCc2nc(C(C)C)c(I)[nH]2)cc1` yielded a melting point of 78 to 79 °C.

In turn, `C#CCn1c(=O)n(C)c(=O)c2c1nc(Cl)n2Cc1ccccc1` gave a melting point of 169 to 172 °C.

`CC(NC(=O)CCCCCCCCC#CC#CCCCCCCCCC(=O)NC(C)c1ccccc1)c1ccccc1` (centres undefined) showed a melting point of 87.5 to 89 °C.

Compound `CS(=O)(=O)c1ccc(C2=C(c3ccc(F)cc3)CCC2)cc1` displayed a melting point of 138 to 139 °C.

The compound `Cc1ccc2sc(-c3ccccn3)nc(=O)c2c1` displayed a melting point of 220 to 221 °C.

Turning to `N#Cc1ccc2c(c1)S(=O)(=O)N=CN2C1CC1`, the melting point was in the range of 268 to 270 °C.

As for `ClCc1nc2cc(Br)ccc2o1`, the melting point lay within 63 to 65 °C.

Turning to `CC(C)(C)OC(=O)N1C(=O)C(C2=COc3ccccc3O2)=C(c2cn(C(=O)OC(C)(C)C)c3cc(OCc4ccccc4)ccc23)C1=O`, the melting point worked out at 81 °C.

`CC(C)(C)c1cc(C(=O)NCc2cccc([N+](=O)[O-])c2)cc(C(C)(C)C)c1O` showed a melting point of 210 to 211 °C.

For `CCCc1nc2c(N)nc3cc(OCc4ccccc4)ccc3c2n1CC(C)C`, the melting point lay in the range of 206 to 208 °C.

The compound `O=Cc1cn(C2CCc3ccccc3C2)c(=S)[nH]1` (centres undefined) came in with a melting point of 206 to 210 °C.

The compound `FC(F)(F)c1[nH]c(-c2ccc(Cl)cc2)cc1-c1csc(Br)c1` registered a melting point of 112 to 115 °C.

`O=C1Nc2ccc(Br)cc2C1c1ncnc2c1cnn2C1CCCC1` (centres undefined) yielded a melting point of 287 to 290 °C.

For `O=C(O)CCCNC(=O)c1ccccc1NC(=O)c1ccccc1O`, the melting point lay in the range of 173 to 174 °C.

With `CC(=O)Nc1ccc2c(c1)C(c1cccn1-c1cccc(Cl)c1)C(=O)N2` (centres undefined), the melting point stood at 251 °C.

`Cc1ccc2cc(NC(=O)c3cccc(CCc4cc(Nc5ccccc5)n[nH]4)c3)ccc2n1` had a melting point of 98 to 102 °C.

In turn, `O=Cc1cc2cc(F)c(F)cc2nc1Cl` registered a melting point of 226 to 229 °C.

Regarding `O=C1C2=C(CCCC2)C(=O)N1c1ccc(Cl)c(CO)c1`, the melting point was in the range of 77 to 79 °C.

`CCC(CC)c1nnc(NC)n(N)c1=O` yielded a melting point of 119 to 120 °C.

Regarding `COC(=O)C1=C(C)Nc2nc(N3CCOCC3)nc(N3CCOCC3)c2C1c1cccc(Cl)c1Cl` (centres undefined), the melting point is 188 °C.

Compound `Nc1ccncc1NC(=S)NCCN1CCC(Nc2nc3ccccc3n2Cc2ccc(F)cc2)C1` (centres undefined) displayed a melting point of 225 °C.

Turning to `Clc1ncccc1OCCOc1ccccc1`, the melting point is 77 to 78 °C.

`COc1cc2c(cc1C(F)(F)F)N(C(=O)Nc1ccccc1CCN(C)C)CC2` gave a melting point of 166 to 168 °C.

Compound `CC(C)(C)OC(=O)N1CCC(O)(CS(=O)(=O)NC(=O)c2cc(C(F)(F)F)cc(C(F)(F)F)c2)CC1` returned a melting point of 154 to 159 °C.

With `O=C(c1ccc(-c2ncn[nH]2)cc1Cl)N1Cc2cccn2Cc2ccccc21`, the melting point is 174 to 177 °C.

Compound `COC(=O)c1snc(-c2cc(C(F)(F)F)cc(C(F)(F)F)c2)c1C(=O)OC` displayed a melting point of 71 to 74 °C.

On to `COC(=O)C(NC(C)=O)C(=O)OCCBr` (centres undefined), for which the melting point was in the range of 84 to 85 °C.

In turn, `CN(C1CCN(C2CC2)CC1)S(=O)(=O)c1ccc(Nc2nccc(Nc3ccc(F)cc3)n2)cc1` gave a melting point of 125 to 128 °C.

In turn, `CC(=O)NC[C@H]1CN(c2ccc(N3CCC(C#N)(CC#N)CC3)c(F)c2)C(=O)O1` had a melting point of 222 to 224 °C.

As to `COc1cccc2sc(-c3ccc(C(F)(F)F)cc3)nc12`, the melting point was 104 °C.

`CSc1nc(=O)[nH]cc1Cl` displayed a melting point of 254 °C.

Compound `O=C1Cc2cc(C(=O)[C@H]3CC[C@H]3C(=O)O)ccc2N1` (relative stereo) returned a melting point of 211 to 212 °C.

`COc1cccc(-c2cc(C#N)c(SC)[nH]2)c1` had a melting point of 112 to 113 °C.

In turn, `CSc1nn2c(N(C)C)cc(C)nc2c1S(=O)(=O)c1ccccc1` displayed a melting point of more than 230 °C.

Compound `CCOC(=O)c1ccc(C(=O)CCc2ccc(S(C)(=O)=O)cc2)cc1` returned a melting point of 118 to 120 °C.

`O=C(O)CN1C(=O)O[C@H](c2ccccc2)[C@@H]1c1ccccc1`: the melting point fell in the range of 161 to 163 °C.

In the case of `CCOC(Cc1ccc(OCCN2CCOc3ccccc32)cc1)C(=O)NC` (centres undefined), the melting point lay within 97 to 99 °C.

Compound `COc1cc(N)c(Cl)cc1C(=O)NCC1CCN(CCCCCC(=O)c2ccc3ccccc3c2)CC1` returned a melting point of 113 to 116 °C.

In the case of `OC1CCCC2Oc3ccccc3OC12` (centres undefined), the melting point was 81 to 82 °C.

As to `O=C(c1ccccc1)n1c(=O)c(C(F)(F)F)cn(C2CC(O)C(COCc3ccc(Cl)cc3)O2)c1=O` (centres undefined), the melting point lay in the range of 159 to 160 °C.

`O=C(C(Cl)Cl)N1CCCCCC1` showed a melting point of 56 °C.

Compound `COc1ccc(C(O)(c2ccc3nc(Cl)nc(-c4cccc(Cl)c4)c3c2)c2cncn2C)cc1` (centres undefined) returned a melting point of 144 °C.

The compound `Cc1cc(Cl)c2c(c1)C=C(/C=C/C=C/C=C/C(=O)O)CO2` had a melting point of 248 to 250 °C.

Turning to `CC12CC(=O)C3C(CCC4CC(O)CCC43C)C1CCC2C(=O)CCc1ccccn1` (centres undefined), the melting point was 179 to 180 °C.

On to `CCCc1nc(SC)c(C(O)CO)n1Cc1ccc(-c2ccccc2S(=O)(=O)NC(=O)NCc2ccccc2)cc1` (centres undefined), for which the melting point worked out at 140 °C.

Compound `COc1ccc(CCNCC(O)c2ccccc2OC)cc1OC` (centres undefined) had a melting point of 88 °C.

For the compound `N#CN1CCC(c2nsc3ccccc23)CC1`, the melting point was 118 to 120 °C.

The compound `CC1(C)C(=O)Nc2cc3[nH]c(C(F)(F)F)nc3cc21` had a melting point of 175 to 177 °C.

As for `CS(=O)c1n[nH]c2ccc(C(F)(F)F)cc12` (centres undefined), the melting point is 168 to 170 °C.

By melting point is commonly meant the temperature of the solid-liquid transition.
